Columns and labels:
[1] = biological target: High affinity nerve growth factor receptor (Homo sapiens, UniProt P04629); assay: Selectivity interaction (SelectScreen profiling (Invitrogen)) EUB0000607a NTRK1; settings: at 2 µM
[2] = biological target: Casein kinase I isoform epsilon (Homo sapiens, UniProt P49674); assay: Selectivity interaction (KinomeScan (DiscoverX)) EUB0000607a CSNK1E; settings: at 10 µM
[3] = biological target: Serine/threonine-protein kinase 26 (Homo sapiens, UniProt Q9P289); assay: Selectivity interaction (SelectScreen profiling (Invitrogen)) EUB0000607a STK26; settings: at 2 µM
Serine/threonine-protein kinase 26, sequence (Q9P289 2-416 limits assumed): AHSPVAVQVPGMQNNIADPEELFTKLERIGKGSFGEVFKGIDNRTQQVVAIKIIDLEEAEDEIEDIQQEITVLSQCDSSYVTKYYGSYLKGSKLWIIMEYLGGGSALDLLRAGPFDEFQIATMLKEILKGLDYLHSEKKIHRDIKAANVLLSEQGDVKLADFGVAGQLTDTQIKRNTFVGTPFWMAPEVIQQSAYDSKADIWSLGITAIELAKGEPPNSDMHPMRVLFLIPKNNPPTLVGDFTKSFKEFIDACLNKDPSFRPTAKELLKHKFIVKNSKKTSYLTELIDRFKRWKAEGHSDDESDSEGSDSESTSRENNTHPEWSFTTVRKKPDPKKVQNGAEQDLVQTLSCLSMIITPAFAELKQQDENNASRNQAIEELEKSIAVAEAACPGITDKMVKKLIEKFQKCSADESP

[4] = biological target: Tyrosine-protein kinase ABL1 (Homo sapiens, UniProt P00519); assay: Selectivity interaction (Upstate Kinase Profiler service (Millipore)) EUB0000056c ABL1; settings: at 1 µM
[5] = biological target: T1, Serine/threonine-protein kinase tousled-like 1 (Homo sapiens) (UniProt Q9UKI8); settings: at 10 µM
T1 sequence (whole entry): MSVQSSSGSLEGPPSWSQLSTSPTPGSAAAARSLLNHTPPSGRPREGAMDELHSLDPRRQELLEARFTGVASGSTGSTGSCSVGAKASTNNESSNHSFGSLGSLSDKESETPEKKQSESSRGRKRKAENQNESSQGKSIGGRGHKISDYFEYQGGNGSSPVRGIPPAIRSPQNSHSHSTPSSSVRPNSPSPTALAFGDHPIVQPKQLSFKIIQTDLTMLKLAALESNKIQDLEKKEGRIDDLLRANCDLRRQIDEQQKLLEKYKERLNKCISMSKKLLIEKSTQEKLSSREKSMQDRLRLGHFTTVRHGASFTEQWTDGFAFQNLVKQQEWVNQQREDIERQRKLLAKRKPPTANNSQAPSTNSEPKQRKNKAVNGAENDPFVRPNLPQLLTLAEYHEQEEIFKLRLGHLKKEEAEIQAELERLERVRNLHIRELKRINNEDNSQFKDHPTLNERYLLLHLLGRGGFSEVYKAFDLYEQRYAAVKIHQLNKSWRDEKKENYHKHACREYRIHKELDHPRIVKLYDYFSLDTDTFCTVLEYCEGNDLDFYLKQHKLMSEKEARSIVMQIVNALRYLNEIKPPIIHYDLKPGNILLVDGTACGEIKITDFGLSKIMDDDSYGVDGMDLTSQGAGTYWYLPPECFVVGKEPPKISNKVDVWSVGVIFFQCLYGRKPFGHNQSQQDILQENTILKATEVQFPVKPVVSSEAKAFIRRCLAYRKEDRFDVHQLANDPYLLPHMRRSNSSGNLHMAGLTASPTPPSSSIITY

[6] = biological target: Ribosomal protein S6 kinase alpha-2 (Homo sapiens) (UniProt Q15349); assay: Selectivity interaction (Kinase panel (Invitrogen)) EUB0000639a RPS6KA2; settings: at 200 nM
Ribosomal protein S6 kinase alpha-2 (Homo sapiens), sequence (Q15349 whole entry, the tested form may be a part): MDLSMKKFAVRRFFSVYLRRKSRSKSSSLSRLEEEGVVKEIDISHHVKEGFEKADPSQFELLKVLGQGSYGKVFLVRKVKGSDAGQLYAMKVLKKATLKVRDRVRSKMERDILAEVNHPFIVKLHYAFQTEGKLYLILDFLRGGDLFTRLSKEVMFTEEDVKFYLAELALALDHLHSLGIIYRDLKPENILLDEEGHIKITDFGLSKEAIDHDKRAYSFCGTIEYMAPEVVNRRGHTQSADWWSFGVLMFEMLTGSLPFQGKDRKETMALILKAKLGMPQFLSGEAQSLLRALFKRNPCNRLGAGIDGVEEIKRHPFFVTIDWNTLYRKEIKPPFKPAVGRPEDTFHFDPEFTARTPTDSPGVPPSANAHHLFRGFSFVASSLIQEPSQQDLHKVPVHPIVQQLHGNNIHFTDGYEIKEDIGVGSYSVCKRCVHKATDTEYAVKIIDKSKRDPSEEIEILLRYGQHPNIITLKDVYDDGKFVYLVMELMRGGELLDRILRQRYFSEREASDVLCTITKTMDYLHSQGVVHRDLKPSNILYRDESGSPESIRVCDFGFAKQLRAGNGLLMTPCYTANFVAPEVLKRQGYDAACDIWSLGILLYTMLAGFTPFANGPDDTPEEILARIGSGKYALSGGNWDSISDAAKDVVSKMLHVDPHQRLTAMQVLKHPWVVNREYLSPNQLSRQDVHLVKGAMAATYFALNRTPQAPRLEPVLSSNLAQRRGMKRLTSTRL

[7] = biological target: Phosphatidylinositol 4-phosphate 3-kinase C2 domain-containing subunit alpha (Homo sapiens) (UniProt O00443); assay: Selectivity interaction (ProQinase) EUB0000171b PIK3C2A
Phosphatidylinositol 4-phosphate 3-kinase C2 domain-containing subunit alpha (Homo sapiens), sequence (O00443 whole entry, the tested form may be a part): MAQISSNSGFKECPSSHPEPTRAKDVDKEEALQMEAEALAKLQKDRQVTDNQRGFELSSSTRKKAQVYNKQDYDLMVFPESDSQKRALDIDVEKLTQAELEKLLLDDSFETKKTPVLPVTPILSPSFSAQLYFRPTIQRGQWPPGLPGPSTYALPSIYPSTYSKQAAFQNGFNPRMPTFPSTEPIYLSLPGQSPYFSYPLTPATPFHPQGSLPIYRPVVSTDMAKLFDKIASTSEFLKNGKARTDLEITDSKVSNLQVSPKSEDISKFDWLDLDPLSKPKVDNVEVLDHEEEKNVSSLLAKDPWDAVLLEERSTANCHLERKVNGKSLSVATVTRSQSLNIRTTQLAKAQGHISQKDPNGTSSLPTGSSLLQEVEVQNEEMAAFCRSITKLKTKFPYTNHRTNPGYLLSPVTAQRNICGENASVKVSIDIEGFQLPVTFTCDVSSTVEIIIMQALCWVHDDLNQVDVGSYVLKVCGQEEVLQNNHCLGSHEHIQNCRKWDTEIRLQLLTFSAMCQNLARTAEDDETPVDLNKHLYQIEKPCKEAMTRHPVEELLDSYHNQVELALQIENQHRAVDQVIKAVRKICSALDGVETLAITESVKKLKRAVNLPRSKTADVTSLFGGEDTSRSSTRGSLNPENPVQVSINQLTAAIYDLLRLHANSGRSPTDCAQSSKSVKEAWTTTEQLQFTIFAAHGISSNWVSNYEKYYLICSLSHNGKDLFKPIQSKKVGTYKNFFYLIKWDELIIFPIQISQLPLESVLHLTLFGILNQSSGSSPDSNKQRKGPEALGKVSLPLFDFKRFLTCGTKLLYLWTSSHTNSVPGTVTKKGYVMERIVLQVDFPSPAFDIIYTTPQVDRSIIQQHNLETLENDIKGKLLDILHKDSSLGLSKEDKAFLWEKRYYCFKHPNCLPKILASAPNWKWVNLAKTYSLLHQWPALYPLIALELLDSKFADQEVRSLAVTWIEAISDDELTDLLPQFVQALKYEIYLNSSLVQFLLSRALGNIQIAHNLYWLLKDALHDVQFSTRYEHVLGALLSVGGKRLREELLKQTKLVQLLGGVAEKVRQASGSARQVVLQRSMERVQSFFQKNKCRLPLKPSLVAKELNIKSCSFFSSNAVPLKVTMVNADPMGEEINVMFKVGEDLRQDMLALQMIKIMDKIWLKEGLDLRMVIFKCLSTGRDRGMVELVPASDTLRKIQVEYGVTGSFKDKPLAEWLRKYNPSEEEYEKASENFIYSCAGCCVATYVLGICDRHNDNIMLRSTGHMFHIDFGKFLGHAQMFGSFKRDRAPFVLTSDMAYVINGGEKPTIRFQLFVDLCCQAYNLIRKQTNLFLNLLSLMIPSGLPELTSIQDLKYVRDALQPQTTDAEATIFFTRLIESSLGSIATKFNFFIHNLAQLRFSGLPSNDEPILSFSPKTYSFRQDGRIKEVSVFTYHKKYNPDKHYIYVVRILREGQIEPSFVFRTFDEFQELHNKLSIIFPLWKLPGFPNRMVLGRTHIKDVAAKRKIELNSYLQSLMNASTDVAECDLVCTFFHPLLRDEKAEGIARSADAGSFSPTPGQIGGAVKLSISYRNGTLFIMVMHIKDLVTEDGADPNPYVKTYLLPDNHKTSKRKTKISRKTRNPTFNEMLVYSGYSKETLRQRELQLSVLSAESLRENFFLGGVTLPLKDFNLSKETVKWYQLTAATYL

[8] = system: Tyrosine-protein kinase ABL1 (Homo sapiens), P00519 [F317I]; assay: Selectivity interaction (KinomeScan (DiscoverX)) EUB0001049a ABL1; settings: at 1 µM
[9] = biological target: Mitogen-activated protein kinase 3 (Homo sapiens, UniProt P27361); assay: Selectivity interaction (KinomeScan (DiscoverX)) EUB0001049a MAPK3; settings: at 1 µM
Mitogen-activated protein kinase 3, sequence (P27361 whole entry): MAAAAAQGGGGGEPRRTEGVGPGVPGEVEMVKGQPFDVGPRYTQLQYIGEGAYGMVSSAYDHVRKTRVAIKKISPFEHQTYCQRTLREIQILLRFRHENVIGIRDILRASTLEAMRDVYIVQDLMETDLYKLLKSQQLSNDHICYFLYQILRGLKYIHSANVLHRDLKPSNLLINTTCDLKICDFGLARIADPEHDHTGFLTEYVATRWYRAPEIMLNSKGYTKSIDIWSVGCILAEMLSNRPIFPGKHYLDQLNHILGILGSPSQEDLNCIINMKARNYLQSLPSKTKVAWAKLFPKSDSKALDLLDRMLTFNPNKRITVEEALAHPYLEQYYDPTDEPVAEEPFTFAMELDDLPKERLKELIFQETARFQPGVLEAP

[10] = biological target: Tyrosine-protein kinase HCK (Homo sapiens) (UniProt P08631); assay: Selectivity interaction (Kinase screening (Nanosyn)) EUB0000604a HCK
[11] = biological target: T2, Mitogen-activated protein kinase kinase kinase 2 (Homo sapiens) (UniProt Q9Y2U5); assay: Selectivity interaction (KinomeScan (DiscoverX)) EUB0001079a MAP3K2; settings: at 1 µM
T2 sequence (whole entry): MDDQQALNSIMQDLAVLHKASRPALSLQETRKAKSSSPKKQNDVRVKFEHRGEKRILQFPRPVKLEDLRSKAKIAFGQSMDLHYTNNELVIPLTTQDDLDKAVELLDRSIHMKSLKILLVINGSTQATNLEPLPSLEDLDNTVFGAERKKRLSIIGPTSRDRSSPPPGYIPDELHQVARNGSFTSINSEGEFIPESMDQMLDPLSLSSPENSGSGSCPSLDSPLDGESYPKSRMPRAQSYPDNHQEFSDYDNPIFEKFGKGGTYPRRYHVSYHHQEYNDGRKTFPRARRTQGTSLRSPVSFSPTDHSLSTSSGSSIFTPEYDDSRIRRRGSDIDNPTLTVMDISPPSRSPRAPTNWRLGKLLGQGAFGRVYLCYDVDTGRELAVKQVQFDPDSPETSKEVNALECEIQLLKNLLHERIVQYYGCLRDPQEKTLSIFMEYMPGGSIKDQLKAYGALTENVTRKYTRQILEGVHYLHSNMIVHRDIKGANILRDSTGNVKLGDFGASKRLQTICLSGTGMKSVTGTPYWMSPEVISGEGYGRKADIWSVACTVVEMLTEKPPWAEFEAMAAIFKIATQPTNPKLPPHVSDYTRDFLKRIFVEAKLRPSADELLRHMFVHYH

[12] = biological target: Fibroblast growth factor receptor 2 (Homo sapiens) (UniProt P21802); assay: Selectivity interaction (KinomeScan (DiscoverX)) EUB0000092b FGFR2; settings: at 10 µM
[13] = biological target: BDNF/NT-3 growth factors receptor (Homo sapiens) (UniProt Q16620); assay: Selectivity interaction (KinomeScan (DiscoverX)) EUB0000092b NTRK2; settings: at 10 µM
[14] = system: Fibroblast growth factor receptor 3 (Homo sapiens), P22607 [G697C]; settings: at 10 µM
Fibroblast growth factor receptor 3 (Homo sapiens), P22607 [G697C], sequence (P22607 whole entry G697C): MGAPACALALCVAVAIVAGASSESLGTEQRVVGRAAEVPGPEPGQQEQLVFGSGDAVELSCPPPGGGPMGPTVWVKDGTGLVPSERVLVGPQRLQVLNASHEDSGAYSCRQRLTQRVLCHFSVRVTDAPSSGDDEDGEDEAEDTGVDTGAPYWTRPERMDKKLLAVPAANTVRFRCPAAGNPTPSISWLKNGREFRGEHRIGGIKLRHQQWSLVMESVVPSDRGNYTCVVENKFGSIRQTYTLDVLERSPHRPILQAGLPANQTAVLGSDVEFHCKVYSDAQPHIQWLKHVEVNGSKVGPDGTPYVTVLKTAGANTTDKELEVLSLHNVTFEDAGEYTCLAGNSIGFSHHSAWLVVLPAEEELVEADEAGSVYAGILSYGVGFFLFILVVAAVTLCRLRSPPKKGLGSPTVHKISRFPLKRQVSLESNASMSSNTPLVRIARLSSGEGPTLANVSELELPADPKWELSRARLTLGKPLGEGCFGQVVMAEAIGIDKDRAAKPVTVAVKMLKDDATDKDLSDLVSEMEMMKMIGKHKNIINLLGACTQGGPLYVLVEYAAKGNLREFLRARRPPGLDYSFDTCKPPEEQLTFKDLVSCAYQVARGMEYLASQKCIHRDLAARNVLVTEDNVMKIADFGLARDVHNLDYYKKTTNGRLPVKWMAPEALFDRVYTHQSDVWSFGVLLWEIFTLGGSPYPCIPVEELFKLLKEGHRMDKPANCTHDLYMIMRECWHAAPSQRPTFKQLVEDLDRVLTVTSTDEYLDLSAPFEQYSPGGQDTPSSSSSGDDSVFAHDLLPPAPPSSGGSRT

[15] = biological target: Serine/threonine-protein kinase PAK 3 (Homo sapiens) (UniProt O75914); assay: Selectivity interaction (KinomeScan (DiscoverX)) EUB0000618a PAK3; settings: at 10 µM
Serine/threonine-protein kinase PAK 3 (Homo sapiens), sequence (O75914 whole entry, looked up): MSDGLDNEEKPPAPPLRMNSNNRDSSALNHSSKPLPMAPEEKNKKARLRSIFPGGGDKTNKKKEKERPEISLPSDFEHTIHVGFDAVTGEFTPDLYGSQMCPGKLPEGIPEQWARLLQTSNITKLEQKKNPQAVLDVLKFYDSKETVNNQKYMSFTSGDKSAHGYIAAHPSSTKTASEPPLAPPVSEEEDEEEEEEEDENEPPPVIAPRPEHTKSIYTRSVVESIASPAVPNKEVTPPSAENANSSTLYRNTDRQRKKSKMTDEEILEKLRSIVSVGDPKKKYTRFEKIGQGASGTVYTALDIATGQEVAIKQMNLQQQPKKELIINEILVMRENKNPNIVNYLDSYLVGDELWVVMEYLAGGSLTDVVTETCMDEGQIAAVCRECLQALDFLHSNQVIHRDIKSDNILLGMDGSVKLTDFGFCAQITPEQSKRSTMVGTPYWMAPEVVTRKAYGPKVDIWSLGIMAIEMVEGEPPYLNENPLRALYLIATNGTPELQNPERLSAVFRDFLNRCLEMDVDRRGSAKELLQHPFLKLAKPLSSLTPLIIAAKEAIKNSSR

Casein kinase I isoform epsilon, sequence (P49674 whole entry, looked up, canonical isoform): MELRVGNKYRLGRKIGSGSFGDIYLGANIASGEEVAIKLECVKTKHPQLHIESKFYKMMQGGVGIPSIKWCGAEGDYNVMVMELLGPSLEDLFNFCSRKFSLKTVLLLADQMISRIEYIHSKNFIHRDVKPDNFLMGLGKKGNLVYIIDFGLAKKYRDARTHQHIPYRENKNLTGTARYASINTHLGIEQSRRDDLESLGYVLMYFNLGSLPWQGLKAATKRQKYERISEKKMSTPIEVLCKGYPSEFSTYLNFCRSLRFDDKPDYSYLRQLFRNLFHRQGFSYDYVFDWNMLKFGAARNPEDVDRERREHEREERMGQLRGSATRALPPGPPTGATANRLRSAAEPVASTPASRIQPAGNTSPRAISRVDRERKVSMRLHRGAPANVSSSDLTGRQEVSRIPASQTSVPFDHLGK

## CNC(=O)Nc1ccc(-c2nc(N3CC4CCC(C3)O4)c3cnn(C4CCC5(CC4)OCCO5)c3n2)cc1
[1]
  % of inhibition: 7%
[2]
  % of control: 39%
[3]
  % of inhibition: 7%

## Cc1ccc(-c2ccc3c(ccc4sc5c(c43)NC[C@@H](C)NC5=O)n2)cn1
[4]
  % of inhibition: 18%

## CCN(CC)CCCCNc1ncc2cc(-c3cc(OC)cc(OC)c3)c(NC(=O)NC(C)(C)C)nc2n1
[5]
  % of control: 100%

## CC[C@@H]1[C@H](F)C(=O)N[C@@H]1COc1nccc2cc(C(N)=O)c(OC)cc12 [ZIMLOVISERTIB]
[6]
  % of inhibition: -0.472%

## C=CC(=O)Nc1cccc(C(=O)Nc2ccc(Nc3cc(-c4[nH]c(SC)nc4C)ccn3)cc2)c1
[7]; at 1 µM
  % of control: 189%
[7]; at 5 µM
  % of control: 183%

## COc1cc(Nc2nc(C)cc(-c3cnn4nc(OC)ccc34)n2)cc(C(F)(F)F)c1
[8]
  % of control: 67%
[9]
  % of control: 98%

## Cc1cnc(Nc2ccc(F)cc2Cl)nc1-c1c[nH]c(C(=O)N[C@H](CO)c2cccc(Cl)c2)c1
[10]
  % of inhibition: 3%

## Nc1cnc(N2CCc3cc(S(=O)(=O)Nc4c(F)cc(Cl)cc4F)cc(N4CCCC4=O)c32)nc1 [TP-020n]
[11]
  % of control: 100%

## CCC(=O)N1CCN(c2ccc(-n3c(=O)ccc4cnc5ccc(-c6cnc7ccccc7c6)cc5c43)cc2C(F)(F)F)CC1
[12]
  % of control: 55%
[13]
  % of control: 81%

## Cc1cc([C@@H](C)Nc2ccccc2C(=O)O)c2nc(N3CCOCC3)cc(=O)n2c1 [AZD-6482]
[14]
  % of control: 100%

## O[C@H]1CC[C@H](Nc2ncc3nc(Nc4c(F)cc(F)cc4F)n([C@H]4CCOC4)c3n2)CC1
[15]
  % of control: 100%

Source: ChEMBL document CHEMBL5465560, “Selectivity Literature for EUbOPEN Chemogenomic Library” (2024)
